Reference: patent publication US8192962B2, “Processes for detecting toxic substances” (Daikin Industries, Ltd., priority 2001, dated 2012)

Tested on: Energy system protein genes
Experiment: DNA chip mRNA expression in yeast, energy system protein genes (Table 4)
Type: cell-based, Saccharomyces cerevisiae S288C
Procedure, shortened: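 Values are treated/untreated fluorescence ratios from a whole-genome yeast DNA chip hybridized over 12 hours at 65° C with Cy3- or Cy5-labelled cDNA from poly(A) mRNA. Log-phase S288C yeast in YPD at 25° C had received a single toxic chemical for two hours, dosed to slow growth without killing.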

## C=CC=O [(14), acrolein]
Yeast gene YJR048W
  The level of expressed mRNA in the presence of chemical substance/The level of expressed mRNA in the absence of chemical substance: 2.5
Yeast gene YJR121W, cells incubated two hours with the chemical substance
  The level of expressed mRNA in the presence of chemical substance/The level of expressed mRNA in the absence of chemical substance: 0.7
Yeast gene YJR155W
  The level of expressed mRNA in the presence of chemical substance/The level of expressed mRNA in the absence of chemical substance: 9.4
Yeast gene YKL016C, cells incubated two hours with the chemical substance
  The level of expressed mRNA in the presence of chemical substance/The level of expressed mRNA in the absence of chemical substance: 1.6
Yeast gene YKL060C, cells incubated two hours with the chemical substance
  The level of expressed mRNA in the presence of chemical substance/The level of expressed mRNA in the absence of chemical substance: 0.8
Yeast gene YKL141W, cells incubated two hours with the chemical substance
  The level of expressed mRNA in the presence of chemical substance/The level of expressed mRNA in the absence of chemical substance: 1.4
Yeast gene YKL148C, cells incubated two hours with the chemical substance
  The level of expressed mRNA in the presence of chemical substance/The level of expressed mRNA in the absence of chemical substance: 0.8
Yeast gene YKL150W
  The level of expressed mRNA in the presence of chemical substance/The level of expressed mRNA in the absence of chemical substance: 1.4
Yeast gene YKR009C, cells incubated two hours with the chemical substance
  The level of expressed mRNA in the presence of chemical substance/The level of expressed mRNA in the absence of chemical substance: 1.0
Yeast gene YKR058W, cells incubated two hours with the chemical substance, 25° C., YPD medium
  The level of expressed mRNA in the presence of chemical substance/The level of expressed mRNA in the absence of chemical substance: 1.3
Yeast gene YKR097W
  The level of expressed mRNA in the presence of chemical substance/The level of expressed mRNA in the absence of chemical substance: 2.1
Yeast gene YLL041C, cells incubated two hours with the chemical substance
  The level of expressed mRNA in the presence of chemical substance/The level of expressed mRNA in the absence of chemical substance: 1.2
Yeast gene YLR038C, cells incubated two hours with the chemical substance
  The level of expressed mRNA in the presence of chemical substance/The level of expressed mRNA in the absence of chemical substance: 1.6
Yeast gene YLR044C, cells incubated two hours with the chemical substance
  The level of expressed mRNA in the presence of chemical substance/The level of expressed mRNA in the absence of chemical substance: 0.5
Yeast gene YLR134W, cells incubated two hours with the chemical substance
  The level of expressed mRNA in the presence of chemical substance/The level of expressed mRNA in the absence of chemical substance: 0.6
Yeast gene YLR258W, cells incubated two hours with the chemical substance
  The level of expressed mRNA in the presence of chemical substance/The level of expressed mRNA in the absence of chemical substance: 1.2
Yeast gene YLR284C, cells incubated two hours with the chemical substance
  The level of expressed mRNA in the presence of chemical substance/The level of expressed mRNA in the absence of chemical substance: 1.3
Yeast gene YLR295C, cells incubated two hours with the chemical substance, 25° C., YPD medium
  The level of expressed mRNA in the presence of chemical substance/The level of expressed mRNA in the absence of chemical substance: 1.2
Yeast gene YLR304C, cells incubated two hours with the chemical substance
  The level of expressed mRNA in the presence of chemical substance/The level of expressed mRNA in the absence of chemical substance: 0.7
Yeast gene YLR345W
  The level of expressed mRNA in the presence of chemical substance/The level of expressed mRNA in the absence of chemical substance: 1.5
Yeast gene YLR354C, cells incubated two hours with the chemical substance
  The level of expressed mRNA in the presence of chemical substance/The level of expressed mRNA in the absence of chemical substance: 0.9
Yeast gene YLR377C, cells incubated two hours with the chemical substance
  The level of expressed mRNA in the presence of chemical substance/The level of expressed mRNA in the absence of chemical substance: 2.9
Yeast gene YLR395C, cells incubated two hours with the chemical substance
  The level of expressed mRNA in the presence of chemical substance/The level of expressed mRNA in the absence of chemical substance: 1.7
Yeast gene YML087C
  The level of expressed mRNA in the presence of chemical substance/The level of expressed mRNA in the absence of chemical substance: 2.1
Yeast gene YML120C, cells incubated two hours with the chemical substance
  The level of expressed mRNA in the presence of chemical substance/The level of expressed mRNA in the absence of chemical substance: 0.8
Yeast gene YML129C, cells incubated two hours with the chemical substance
  The level of expressed mRNA in the presence of chemical substance/The level of expressed mRNA in the absence of chemical substance: 1.4
Yeast gene YMR073C, cells incubated two hours with the chemical substance
  The level of expressed mRNA in the presence of chemical substance/The level of expressed mRNA in the absence of chemical substance: 2.0
Yeast gene YMR118C
  The level of expressed mRNA in the presence of chemical substance/The level of expressed mRNA in the absence of chemical substance: 0.9
Yeast gene YMR205C, cells incubated two hours with the chemical substance
  The level of expressed mRNA in the presence of chemical substance/The level of expressed mRNA in the absence of chemical substance: 0.5
Yeast gene YMR261C, cells incubated two hours with the chemical substance
  The level of expressed mRNA in the presence of chemical substance/The level of expressed mRNA in the absence of chemical substance: 0.6
Yeast gene YMR267W, cells incubated two hours with the chemical substance, 25° C., YPD medium
  The level of expressed mRNA in the presence of chemical substance/The level of expressed mRNA in the absence of chemical substance: 1.0
Yeast gene YMR323W, cells incubated two hours with the chemical substance
  The level of expressed mRNA in the presence of chemical substance/The level of expressed mRNA in the absence of chemical substance: 1.2
Yeast gene YNL071W
  The level of expressed mRNA in the presence of chemical substance/The level of expressed mRNA in the absence of chemical substance: 0.8
Yeast gene YNL202W, cells incubated two hours with the chemical substance
  The level of expressed mRNA in the presence of chemical substance/The level of expressed mRNA in the absence of chemical substance: 1.0
Yeast gene YNL241C
  The level of expressed mRNA in the presence of chemical substance/The level of expressed mRNA in the absence of chemical substance: 1.1
Yeast gene YNL331C
  The level of expressed mRNA in the presence of chemical substance/The level of expressed mRNA in the absence of chemical substance: 7.5
Yeast gene YOL086C, cells incubated two hours with the chemical substance
  The level of expressed mRNA in the presence of chemical substance/The level of expressed mRNA in the absence of chemical substance: 0.6
Yeast gene YOL165C
  The level of expressed mRNA in the presence of chemical substance/The level of expressed mRNA in the absence of chemical substance: 9.1
Yeast gene YOR142W, cells incubated two hours with the chemical substance
  The level of expressed mRNA in the presence of chemical substance/The level of expressed mRNA in the absence of chemical substance: 0.8
Yeast gene YOR178C, cells incubated two hours with the chemical substance
  The level of expressed mRNA in the presence of chemical substance/The level of expressed mRNA in the absence of chemical substance: 1.0
Yeast gene YOR388C, cells incubated two hours with the chemical substance
  The level of expressed mRNA in the presence of chemical substance/The level of expressed mRNA in the absence of chemical substance: 1.3
Yeast gene YPL031C, cells incubated two hours with the chemical substance
  The level of expressed mRNA in the presence of chemical substance/The level of expressed mRNA in the absence of chemical substance: 0.9
Yeast gene YPL061W, cells incubated two hours with the chemical substance
  The level of expressed mRNA in the presence of chemical substance/The level of expressed mRNA in the absence of chemical substance: 0.6
Yeast gene YPL088W
  The level of expressed mRNA in the presence of chemical substance/The level of expressed mRNA in the absence of chemical substance: 1.6
Yeast gene YPL171C
  The level of expressed mRNA in the presence of chemical substance/The level of expressed mRNA in the absence of chemical substance: 9.3
Yeast gene YPL240C
  The level of expressed mRNA in the presence of chemical substance/The level of expressed mRNA in the absence of chemical substance: 0.7
Yeast gene YPL262W, cells incubated two hours with the chemical substance
  The level of expressed mRNA in the presence of chemical substance/The level of expressed mRNA in the absence of chemical substance: 1.2
Yeast gene YPL275W, cells incubated two hours with the chemical substance
  The level of expressed mRNA in the presence of chemical substance/The level of expressed mRNA in the absence of chemical substance: 1.0
Yeast gene YPL276W, cells incubated two hours with the chemical substance
  The level of expressed mRNA in the presence of chemical substance/The level of expressed mRNA in the absence of chemical substance: 0.9
Yeast gene YPR048W, cells incubated two hours with the chemical substance
  The level of expressed mRNA in the presence of chemical substance/The level of expressed mRNA in the absence of chemical substance: 1.2
Yeast gene YPR184W, cells incubated two hours with the chemical substance
  The level of expressed mRNA in the presence of chemical substance/The level of expressed mRNA in the absence of chemical substance: 1.3
